Laboratory results from patent publication US9155765B2, “Establishment of patient- or person-specific cardiac myocyte cell lines from human induced pluripotent stem cells (iPSCs)” (Baylor Research Institute, priority 2011, dated 2015).

System: derived cardiac cell line
Test: Effect of hypertrophy inducing drugs on derived cardiac cell line (cell size change)
Format: cell-based, human
Settings: 24 hrs after drug administration; phase-contrast images before and after (FIG. 8)
Description: The effect of hypertrophy inducing drugs on derived cardiac cell line was tested. A response to cardiac toxic reagents is important in evaluating the properties of derived cardiac cell line and the future usage of the cells for testing cardiac toxic reagents as well as the mechanistic study on cardiomyopathy. Tumor necrosis factor (TNF)-α was used for the induction and compared the cell size changes at 24 hrs after drug administration.

Tumor necrosis factor (TNF)-α [TNF-α]
cell size changes: increase in the sizes of treated cardiac cells
